Key:
[1] = test system: human DLD-1 colon carcinoma xenograft; experiment: Therapeutic effect on human DLD-1 colon carcinoma xenograft in nude mice; conditions: 30 mg/kg p.o. QD × 28 days, positive control
Protocol: DLD-1 colon carcinoma cells (5×10^6 cells in 100 μL of PBS/Matrigel), isolated during exponential growth phase from in vitro cell culture, were transplanted s.c. into each female BALB/c nude mouse at day 0. Mice were kept under strictly controlled and standardized barrier conditions in IVC.
Sorafenib) (Nexavar®, which is an approved multi-kinase inhibitor/cytostatic from Bayer A G, was used as a positive control. Body weight and tumor volume (TV) were monitored two to three times per week.
Mice of groups 3, 4 and 5 were treated again at the end of the study period and blood samples were taken to generate plasma 1 h prior and 1 h post treatment. In addition, tumor and tissue samples were isolated, divided into two parts and snap frozen in liquid nitrogen. Mice of groups 1-5 were sacrificed at day 39. Gross autopsy was performed from all mice.

[2] = biological target: mitochondrial RNA-polymerase (POLRMT) (Mus musculus, UniProt Q8BKF1); experiment: Homogeneous TR-FRET assay for mitochondrial transcription activity; assay type: biochemical; conditions: homogeneous TR-FRET assay according to Example 4; activity class
Procedure, shortened: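 TR-FRET read-out (340 nm excitation, 665 nm emission) of a 407 bp transcript captured by Eu-streptavidin/biotin donor and ATTO647N acceptor DNA probes after EDTA stop. Transcription ran 2 h at RT with 500 μM […], mouse POLRMT/TFAM/TFB2M and LSP-plasmid template, after 10 min compound preincubation (10 μM or dilution series).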

[3] = test system: mitochondrial transcription (7S RNA) in HeLa cells; experiment: Quantitative real time-PCR assay of inhibition of mitochondrial transcription (cellular qPCR assay IMT); assay type: cell-based; conditions: Homo sapiens, 4 h compound incubation, qRT-PCR according to Example 5, activity class
Procedure, shortened: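 HeLa cells were exposed 4 h to compound dilution series or DMSO. Mitochondrial 7S RNA, with POLRMT for nuclear transcription, was measured by TaqMan qRT-PCR, normalised to TBP. Biological triplicates were analysed by ΔΔCt and expressed as Rq % (2^-ΔΔCt).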

Sequence of mitochondrial RNA-polymerase (POLRMT) (Q8BKF1 42-1207): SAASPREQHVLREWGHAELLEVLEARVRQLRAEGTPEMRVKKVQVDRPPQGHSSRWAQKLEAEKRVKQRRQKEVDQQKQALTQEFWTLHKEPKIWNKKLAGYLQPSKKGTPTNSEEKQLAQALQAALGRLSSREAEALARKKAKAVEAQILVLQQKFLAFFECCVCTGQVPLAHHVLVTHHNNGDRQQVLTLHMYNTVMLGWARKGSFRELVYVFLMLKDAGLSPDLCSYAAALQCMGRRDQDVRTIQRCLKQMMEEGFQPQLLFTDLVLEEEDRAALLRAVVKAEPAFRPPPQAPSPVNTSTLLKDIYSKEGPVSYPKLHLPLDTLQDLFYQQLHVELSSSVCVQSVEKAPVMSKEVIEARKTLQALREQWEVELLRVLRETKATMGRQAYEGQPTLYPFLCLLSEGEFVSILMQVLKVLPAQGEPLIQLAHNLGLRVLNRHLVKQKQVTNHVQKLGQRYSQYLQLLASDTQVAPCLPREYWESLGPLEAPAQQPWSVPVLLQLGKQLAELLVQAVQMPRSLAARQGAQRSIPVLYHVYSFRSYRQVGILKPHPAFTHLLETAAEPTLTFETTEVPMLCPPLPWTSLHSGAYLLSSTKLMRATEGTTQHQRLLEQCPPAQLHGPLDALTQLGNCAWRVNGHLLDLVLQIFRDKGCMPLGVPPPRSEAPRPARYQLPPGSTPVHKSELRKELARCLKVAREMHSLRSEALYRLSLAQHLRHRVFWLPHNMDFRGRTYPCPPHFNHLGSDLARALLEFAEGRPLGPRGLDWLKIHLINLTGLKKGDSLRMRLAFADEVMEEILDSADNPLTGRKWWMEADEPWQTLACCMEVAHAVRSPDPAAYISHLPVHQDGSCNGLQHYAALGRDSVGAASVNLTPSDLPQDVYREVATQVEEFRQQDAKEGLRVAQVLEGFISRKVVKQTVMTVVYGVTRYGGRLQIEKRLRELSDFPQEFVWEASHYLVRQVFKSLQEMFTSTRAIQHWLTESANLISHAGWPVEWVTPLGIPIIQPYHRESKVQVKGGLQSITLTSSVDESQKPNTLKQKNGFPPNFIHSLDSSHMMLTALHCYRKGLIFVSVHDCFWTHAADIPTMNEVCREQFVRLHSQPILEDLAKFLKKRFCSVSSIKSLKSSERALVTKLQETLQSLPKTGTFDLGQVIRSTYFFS

Row | IC50 [2] [nM] | IC50 [3] [nM] | SMILES | body weight loss [1]
1 | 100 to 1000 | 500 to 5000 | CC(C)(Oc1ccc2c(-c3ccccc3Cl)cc(=O)oc2c1)C(=O)N1CCC[C@H](C(=O)O)C1 [Compound 116, (3S)-1-[2-[4-(2-chlorophenyl)-2-oxo-chromen-7-yl]oxy-2-methyl-propanoyl]piperidine-3-carboxylic acid] | –
2 | < 20 | < 10 | Cc1ccccc1-c1cc(=O)oc2cc(OC(C)C(=O)N3CCCCC3)ccc12 (centres unmarked) [Compound 1, 7-[1-methyl-2-oxo-2-(1-piperidyl)ethoxy]-4-(o-tolyl)chromen-2-one] | –
3 | < 20 | 10 to 50 | Cc1ccccc1-c1cc(=O)oc2cc(OC(C)C(=O)N3CCCC(c4nn[nH]n4)C3)ccc12 (centres unmarked) [Compound 42, 7-((1-(3-(2H-tetrazol-5-yl)piperidin-1-yl)-1-oxopropan-2-yl)oxy)-4-(o-tolyl)-2H-chromen-2-one] | –
4 | < 20 | < 10 | CCC(=O)N[C@H]1CCCN(C(=O)[C@@H](C)Oc2ccc3c(-c4ccc(F)cc4Cl)cc(=O)oc3c2)C1 [Compound 169, N-[(3S)-1-[(2R)-2-[4-(2-chloro-4-fluoro-phenyl)-2-oxo-chromen-7-yl]oxypropanoyl]-3-piperidyl]propanamide] | –
5 | 20 to 100 | 10 to 50 | CC(Oc1ccc2c(-c3ccccc3Cl)cc(=O)oc2c1)C(=O)N1CCC(CC(=O)O)CC1 (centres unmarked) [Compound 59, 2-[1-[2-[4-(2-chlorophenyl)-2-oxo-chromen-7-yl]oxypropanoyl]-4-piperidyl]acetic acid] | –
6 | < 20 | < 10 | CNC(=O)C1CCCN(C(=O)C(C)Oc2ccc3c(-c4ccccc4C)cc(=O)oc3c2)C1 (centres unmarked) [Compound 21, N-methyl-1-[2-[4-(o-tolyl)-2-oxo-chromen-7-yl]oxypropanoyl]piperidine-3-carboxamide] | –
7 | < 20 | < 10 | CC(Oc1ccc2c(-c3ccccc3Cl)cc(=O)oc2c1)C(=O)N1CCCCC1 (centres unmarked) [Compound 2, 4-(2-chlorophenyl)-7-[1-methyl-2-oxo-2-(1-piperidyl)ethoxy]chromen-2-one] | –
8 | < 20 | < 10 | Cc1ccccc1-c1cc(=O)oc2cc(O[C@H](C)C(=O)NC(C)C)ccc12 [Compound 36, (2R)-N-isopropyl-2-[4-(o-tolyl)-2-oxo-chromen-7-yl]oxy-propanamide] | –
9 | < 20 | < 10 | C[C@@H](Oc1ccc2c(-c3ccccc3Cl)cc(=O)oc2c1)C(=O)N1CCC[C@H](C(=O)O)C1 [Compound 23, (3S)-1-[(2R)-2-[4-(2-chlorophenyl)-2-oxo-chromen-7-yl]oxypropanoyl]piperidine-3-carboxylic acid] | –
10 | 20 to 100 | 10 to 50 | COC(=O)C[C@@H]1CCCN(C(=O)[C@@H](C)Oc2ccc3c(-c4ccc(F)cc4Cl)cc(=O)oc3c2)C1 [Compound 105, methyl 2-[(3S)-1-[(2R)-2-[4-(2-chloro-4-fluoro-phenyl)-2-oxo-chromen-7-yl]oxypropanoyl]-3-piperidyl]acetate] | –
11 | < 20 | < 10 | CCC(Oc1ccc2c(-c3ccccc3Cl)cc(=O)oc2c1)C(=O)N1CCC[C@H](C(=O)O)C1 (stereo partly drawn) [Compound 110, (3S)-1-[2-[4-(2-chlorophenyl)-2-oxo-chromen-7-yl]oxybutanoyl]piperidine-3-carboxylic acid] | –

The next lines start with the compound.

Row | SMILES | IC50 [2] [nM] | IC50 [3] [nM] | body weight loss [1]
12 | CNC(=O)c1cc(Oc2ccc(NC(=O)Nc3ccc(Cl)c(C(F)(F)F)c3)cc2)ccn1 [Sorafenib, reference compound] | – | – | severe body weight loss
13 | CCNC(=O)C(C)Oc1ccc2c(-c3ccccc3Cl)cc(=O)oc2c1 (centres unmarked) [Compound 98, 2-[4-(2-chlorophenyl)-2-oxo-chromen-7-yl]oxy-N-ethyl-propanamide] | 100 to 1000 | < 10 | –
14 | C=CC(=O)N[C@H]1CCCN(C(=O)[C@@H](C)Oc2ccc3c(-c4ccc(F)cc4Cl)cc(=O)oc3c2)C1 [Compound 165, N-[(3S)-1-[(2R)-2-[4-(2-chloro-4-fluoro-phenyl)-2-oxo-chromen-7-yl]oxypropanoyl]-3-piperidyl]prop-2-enamide] | < 20 | < 10 | –
15 | C[C@@H](Oc1ccc2c(-c3ccc(F)cc3Cl)cc(=O)oc2c1)C(=O)N1CCN(C)C(C(=O)O)C1 (mixture of isomers) [Compound 161, 1-methyl-4-[rac-(2R)-2-[4-(2-chloro-4-fluoro-phenyl)-2-oxo-chromen-7-yl]oxypropanoyl]piperazine-2-carboxylic acid] | 100 to 1000 | 500 to 5000 | –
16 | CCNC(=O)C(C)Oc1ccc2c(-c3ccc(F)cc3Cl)cc(=O)oc2c1 (centres unmarked) [Compound 91, 2-[4-(2-chloro-4-fluoro-phenyl)-2-oxo-chromen-7-yl]oxy-N-ethyl-propanamide] | 20 to 100 | < 10 | –
17 | C[C@@H](Oc1ccc2c(-c3ccc(F)cc3Cl)cc(=O)oc2c1)C(=O)N1CCC[C@H](CC(=O)OCCN2CCOCC2)C1 [Compound 125] | < 20 | < 10 | –
18 | C[C@@H](Oc1ccc2c(-c3ccc(F)cc3Cl)cc(=O)oc2c1)C(=O)N1CCC[C@@H](CC(=O)O)C1 [Compound 107, 2-[(3S)-1-[(2R)-2-[4-(2-chloro-4-fluoro-phenyl)-2-oxo-chromen-7-yl]oxypropanoyl]-3-piperidyl]acetic acid] | < 20 | < 10 | –
19 | C[C@@H](Oc1ccc2c(-c3ccc(F)cc3Cl)cc(=O)oc2c1)C(=O)N1CC[C@@H](CC(=O)O)C1 [Compound 147, 2-[(3S)-1-[(2R)-2-[4-(2-chloro-4-fluoro-phenyl)-2-oxo-chromen-7-yl]oxypropanoyl]pyrrolidin-3-yl]acetic acid] | < 20 | 10 to 50 | –
20 | CC(C)OC(=O)C(C)Oc1ccc2c(-c3ccccc3Br)cc(=O)oc2c1 (centres unmarked) [Compound 92, isopropyl 2-[4-(2-bromophenyl)-2-oxo-chromen-7-yl]oxypropanoate] | 20 to 100 | < 10 | –
21 | COC(=O)[C@H]1CN(C(=O)[C@@H](C)Oc2ccc3c(-c4ccc(F)cc4Cl)cc(=O)oc3c2)CCN1 [Compound 136, methyl (2R)-4-[(2R)-2-[4-(2-chloro-4-fluoro-phenyl)-2-oxo-chromen-7-yl]oxypropanoyl]piperazine-2-carboxylate] | 20 to 100 | 10 to 50 | –
22 | Cc1ccsc1-c1cc(=O)oc2cc(O[C@H](C)C(=O)N(C)C)ccc12 [Compound 179, (2R)-N,N-dimethyl-2-[4-(3-methyl-2-thienyl)-2-oxo-chromen-7-yl]oxy-propanamide] | 100 to 1000 | 10 to 50 | –
23 | C[C@@H](Oc1ccc2c(-c3ccc(F)cc3Cl)cc(=O)oc2c1)C(=O)Nc1cccc(C(=O)O)c1 [Compound 139, 3-[[(2R)-2-[4-(2-chloro-4-fluoro-phenyl)-2-oxo-chromen-7-yl]oxypropanoyl]amino]benzoic acid] | < 20 | 50 to 500 | –
24 | CCCCCCCOC(=O)C[C@H]1CCCN(C(=O)[C@@H](C)Oc2ccc3c(-c4ccc(F)cc4Cl)cc(=O)oc3c2)C1 [Compound 126, heptyl 2-[(3R)-1-[(2R)-2-[4-(2-chloro-4-fluoro-phenyl)-2-oxo-chromen-7-yl]oxypropanoyl]-3-piperidyl]acetate] | 100 to 1000 | < 10 | –
25 | CCOC(=O)C[C@H]1CCCN(C(=O)[C@@H](C)Oc2ccc3c(-c4sccc4C)cc(=O)oc3c2)C1 [Compound 180, ethyl 2-[(3R)-1-[(2R)-2-[4-(3-methyl-2-thienyl)-2-oxo-chromen-7-yl]oxypropanoyl]-3-piperidyl]acetate] | 20 to 100 | < 10 | –
26 | CC(Oc1ccc2c(-c3ccccc3Br)cc(=O)oc2c1)C(=O)N(C)C (centres unmarked) [Compound 89, 2-[4-(2-bromophenyl)-2-oxo-chromen-7-yl]oxy-N,N-dimethyl-propanamide] | 20 to 100 | < 10 | –
27 | CC(Oc1ccc2c(-c3ccc(F)cc3Cl)cc(=O)oc2c1)C(=O)N1CCCC(C)(C(=O)O)C1 (centres unmarked) [Compound 37, 1-[2-[4-(2-chloro-4-fluoro-phenyl)-2-oxo-chromen-7-yl]oxypropanoyl]-3-methyl-piperidine-3-carboxylic acid] | < 20 | < 10 | –
28 | C[C@@H](Oc1ccc2c(-c3ccc(F)cc3Cl)cc(=O)oc2c1)C(=O)N1CC[C@H](C(=O)O)C1 [Compound 159, (3S)-1-[(2R)-2-[4-(2-chloro-4-fluoro-phenyl)-2-oxo-chromen-7-yl]oxypropanoyl]pyrrolidine-3-carboxylic acid] | 20 to 100 | 500 to 5000 | –
29 | Cc1cscc1-c1cc(=O)oc2cc(O[C@H](C)C(=O)N3CCCCC3)ccc12 [Compound 183, 7-[(1R)-1-methyl-2-oxo-2-(1-piperidyl)ethoxy]-4-(4-methyl-3-thienyl)chromen-2-one] | < 20 | < 10 | –
30 | CC(C)NC(=O)[C@@H](C)Oc1ccc2c(-c3ccccc3Cl)cc(=O)oc2c1 [Compound 56, (2R)-2-[4-(2-chlorophenyl)-2-oxo-chromen-7-yl]oxy-N-isopropyl-propanamide] | 20 to 100 | < 10 | –

— US11111238B2, “Coumarin derivatives, processes for their preparation and uses thereof for the treatment of cancer” (Lead Discovery Center GmbH, priority 2017, dated 2021)
